Source: US9670156B2, “Crystal form III of (S)-oxiracetam, preparation method and use thereof” (Chongqing Runze Pharmaceutical Company Limited, priority 2013, dated 2017)

Experiments:
[1] = parameters: species or system Beagle dogs; details: dog, in vivo; for AUCO-∞ / T1/2 / Tmax / bioavailability of crystal form I and III compared: po
Text: Base on the existing LC-MS method for determination of (S)-oxiracetam in a biological sample, 6 healthy Beagle dogs are used in the experiment. They are weighted 8-10 kg, and divided into two groups of three. They are used to observe the bioavailability of the different crystal forms of (S)-oxiracetam after oral administration to the dogs. The pharmacokinetics of the crystal forms I and III of (S)-oxiracetam in the dogs are studied. And oxiracetam is used as reference preparation to evaluate whether the bioavailability of crystal forms I and III are equivalent. The bioequivalence is evaluated by calculating the pharmacokinetic parameters. Results: The main pharmacokinetic parameters of the crystal forms I and III of (S)-oxiracetam in the Beagle dogs are as follows: Tmax are (1.561±0.398) and (1.498±0.3988), Cmax are (198.076±80.462) and (186.205±50.321) […], respectively; T1/2 are (0.915±0.125) and (0.909±0.112) h, respectively; and AUCO-∞ are (456.268±85.567) and (436.364±75.204) […], respectively.

[2] = parameters: species or system Beagle dogs; details: dog, in vivo, po
[3] = Dissolution in aqueous solution compared with other crystal forms; type: physicochemical; details: compared with other crystal forms of (S)-oxiracetam

Row | Compound | bioavailability [1] | AUCO-∞ [1] | T1/2 [1] | Tmax [1] | bioavailability of crystal form I and III compared [1] | Cmax [2] | dissolution in aqueous solution [3]
1 | NC(=O)CN1C[C@@H](O)CC1=O [crystal form III, (S)-4-hydroxy-2-oxo-1-pyrrolidine acetamide] | high bioavailability | 436364 ± 75204 µg·h/mL | 54.5 ± 6.72 min | 1.498±0.3988 | exactly the same | 186 ± 50.3 µg/mL | dissolves fast
2 | NC(=O)CN1C[C@@H](O)CC1=O [crystal form I, (S)-4-hydroxy-2-oxo-1-pyrrolidine acetamide] |  | 456268 ± 85567 µg·h/mL | 54.9 ± 7.5 min | 1.561±0.398 | exactly the same | 198 ± 80.5 µg/mL | 
